“Also recorded” adds a separate entry of the source.
How the values were obtained:
[1] = system: MCF-7 human breast cancer cells; assay: Hypoxia-activated drug assay: live-dead staining (calcein-AM / propidium iodide) of micropatterned cells, normoxic or in hypoxia microdevice; type: cell-based; conditions: 50 μM TPZ; for live-cell fraction (areal fraction of positive calcein staining), inside versus outside the 1.5 mm radius: N=3, one-way ANOVA; for cytotoxicity indicated by positive nuclear propidium iodide (PI) staining: 24 hours after 12 hours pre-conditioning
Protocol: To assess the response of cancer cells to drug treatment under a hypoxic gradient, as well as the feasibility of the microdevice for drug screening assays, cell viability assays with TPZ treatment in the microdevice were performed. […] Cells were pre-conditioned with hypoxia in the microdevice for 12 hours, which was considered sufficient to induce cellular adaptations to hypoxia^47, before being treated with TPZ for 24 hours. […] As dead cells can be washed off in the staining process, the areal fraction of living cells with positive calcein staining was chosen as the readout for TPZ cytotoxicity. The live-cell fractions in the micropatterns inside and outside the 1.5 mm radius were quantified, which corresponds to the pillar radius.
MCF-7 human breast cancer cells were purchased from ATCC and maintained in […] (DMEM; Thermo Fisher) supplemented with 10% fetal bovine serum (FBS; Omega Scientific), 100 U mL^−1 penicillin, and 100 μg mL^−1 streptomycin (Thermo Fisher), in a humidified incubator maintained at 37° C. and 5% CO2. Round glass coverslips (12 mm in diameter; Fisher Scientific) were immersed in hot commercial detergent, rinsed with deionized water, and dried with air. The coverslips were then treated with plasma (Harrick Plasma, Model PDC-001-HP) and silanized with 1% aminopropyltriathoxysilane (Fisher Scientific) for 15 minutes. Upon extensive rinsing, coverslips were dried with air and cured at 100° C. for 1 hour. Next, silanized coverslips were coated with 0.1 mg mL^−1 rat tail collagen type I (Corning) in 4° C. for 3 hours under shaking conditions. Micropattern designs were modeled in CorelDrawX7 (Corel Corporation) and fabricated into 250 μm thick PDMS stencils (Rogers Corporation) by a laser engraver (Epilog). Stencil design was a circular feature of 5 mm diameter cut into a 13 mm circle. Stencils were then thoroughly rinsed in 70% isopropanol and deionized water, air-dried, and aligned onto the collagen-coated coverslips. The whole substrate was blocked with 0.2% w/v pluronic F-127 (Sigma) diluted in 1×PBS, rinsed with PBS, then with DMEM. Next, 300,000 MCF-7 human breast cancer cells (ATCC) were seeded. After cells adhered, PDMS stencils were peeled off and the glass coverslips with micropatterned cancer cells were briefly rinsed^41.
Micropatterned cells were pre-conditioned in normoxic conditions (no microdevice) or hypoxic conditions (microdevice) for 12 hours. Next, media was replaced with 50 μM TPZ (Sigma Aldrich), a hypoxia-activated anticancer prodrug, for 24 hours. Cells were rinsed with fresh media and stained for calcein-AM (Sigma Aldrich) and propidium iodide (PI) (Thermo Fisher Scientific) for 30 minutes at room temperature. Cell survival was quantified by the fraction of cells expressing positive calcein signal.
For the drug assay, the fraction of calcein positive cells (live cells) within (corresponding to hypoxia-induced cells under the pillar) and outside (corresponding to near-normoxic cells outside the pillar) the 1.5 mm radius was quantified. The fraction of PI positive cells (dead cells) was also quantified. The respective fractions were plotted against micropattern radii, similarly to previous image analyses. All data are plotted using Prism (GraphPad Software, Inc.).

[2] = system: hypoxic human cancer cells; conditions: hypoxic vs normoxic human cancer cells; cited from earlier work

For `Nc1n[n+]([O-])c2ccccc2[n+]1[O-]` [TPZ, tirapazamine], the “live-cell fraction (areal fraction of positive calcein staining), inside versus outside the 1.5 mm radius” value ([1]; hypoxia microdevice, 24 hours) was “significant reduction”, the “cytotoxicity indicated by positive nuclear propidium iodide (PI) staining” value ([1]; hypoxic samples (microdevice), MCF-7) was “cytotoxicity caused by TPZ” and the “fate of cells under severe hypoxia near the pillar center (live-dead staining)” value ([1]; microdevice, ≤0.03 mol/m^3 oxygen level by COMSOL simulation, 24 hours, MCF-7) was “eliminated; also recorded: death zone”. The “live-cell fraction (areal fraction of positive calcein staining), inside versus outside the 1.5 mm radius” value ([1]; normoxic condition (no microdevice), 24 hours) was “not statistically different”, the “cytotoxicity indicated by positive nuclear propidium iodide (PI) staining” value ([1]; normoxic samples (no microdevice), MCF-7) was “cytotoxicity caused by TPZ; also recorded: TPZ-induced cytotoxicity” and the “selectivity at targeting hypoxic human cancer cells versus their normoxic counterparts” value [2] was 15- to 50 fold.

From patent US10829730B2, “Microdevice platform recapitulating hypoxic tissue microenvironments” (UNIVERSITY OF SOUTHERN CALIFORNIA, priority 2017, dated 2020)
